The values that follow come from patent publication EP0550775A1, “Cephalosporin derivatives” (F. HOFFMANN-LA ROCHE AG, priority 1992, dated 1993).

The structures appear in SMILES notation. Counter-ions that a name gives are not always drawn. Like-named read-outs stand apart in the source and are kept apart here.

The test system of one series is E. coli TEM-1. Nature of the series: microbe, parasite or virus in culture. It counts as cell-based. To be noted: Escherichia coli, agar dilution, read-out: MIC. On the procedure: (§1) In vitro activity of the compounds of the present invention was measured by the Minimum Inhibitory Concentration (MIC) in micrograms/ml utilizing the Agar Dilution Method, which is well known in the art, against a variety of gram-negative and gram-positive organisms.
For orientation: Agar dilution tests growth on a series of plates holding different concentrations.

The subject of a further series is Enter. cloacae P99. The experiment in a line: microbe, parasite or virus in culture. The series is classed as cell-based. To be noted: Enterobacter cloacae, agar dilution, read-out: MIC. On the procedure:
as §1

The next series relates to E. coli 257. Nature of the series: microbe, parasite or virus in culture. The series is classed as cell-based. To be noted: Escherichia coli, agar dilution, read-out: MIC. As for the experimental part:
as §1

The subject of the next series is E. coli ATCC 25922. The experiment in a line: microbe, parasite or virus in culture. The series is classed as cell-based. The note with it: Escherichia coli, ATCC25922, agar dilution, read-out: MIC. On the procedure: as §1
The next series concerns Prot. vulgaris ATCC 6380. Nature of the series: In vitro MIC, Agar Dilution Method. The series is classed as cell-based. To be noted: Proteus vulgaris, ATCC6380, read-out: MIC. On the procedure: as §1
The next series concerns Ps. aeruginosa 8780. Nature of the series: In vitro MIC, Agar Dilution Method. It counts as cell-based. To be noted: Pseudomonas aeruginosa, read-out: MIC. As for the experimental part: as §1
Another series deals with Prot. mirabilis 90. The experiment in a line: In vitro MIC, Agar Dilution Method. The series is classed as cell-based. To be noted: Proteus mirabilis. On the procedure:
as §1

The next series deals with K. pneumoniae A. The experiment in a line: In vitro MIC, Agar Dilution Method. To be noted: Klebsiella pneumoniae. The series is classed as cell-based. As for the experimental part: as §1
A further series deals with Staph. aureus 1059B. Nature of the series: In vitro MIC, Agar Dilution Method. To be noted: Staphylococcus aureus, read-out: MIC. It counts as cell-based. On the procedure: as §1
The next series concerns Enter. cloacae 5699. Nature of the series: In vitro MIC, Agar Dilution Method. It counts as cell-based. To be noted: Enterobacter cloacae. As for the experimental part:
as §1

The subject of a further series is Str. faecalis ATCC 29212. The experiment in a line: In vitro MIC, Agar Dilution Method. It counts as cell-based. The note with it: Enterococcus faecalis, ATCC29212. On the procedure: as §1
Another series relates to Ser. marcescens 1071. The experiment in a line: In vitro MIC, Agar Dilution Method. It counts as cell-based. The note with it: Serratia marcescens. As for the experimental part:
as §1

For another series, the system named is Prot. vulgaris 1028 BC. The experiment in a line: In vitro MIC, Agar Dilution Method. The series is classed as cell-based. To be noted: Proteus vulgaris, read-out: MIC. On the procedure: as §1
The next series has as its system Str. pyogenes 4. Nature of the series: In vitro MIC, Agar Dilution Method. It counts as cell-based. The note with it: Streptococcus pyogenes. On the procedure:
as §1

For another series, the system named is Ps. aeruginosa 18SH. The experiment in a line: In vitro MIC, Agar Dilution Method. The series is classed as cell-based. The note with it: Pseudomonas aeruginosa, read-out: MIC. As for the experimental part: as §1
For a further series, the system named is Ps. aeruginosa 765. Nature of the series: In vitro MIC, Agar Dilution Method. The series is classed as cell-based. To be noted: Pseudomonas aeruginosa, read-out: MIC. As for the experimental part: as §1
A further series relates to Staph. aureus ATCC 29213. Nature of the series: In vitro MIC, Agar Dilution Method. It counts as cell-based. The note with it: Staphylococcus aureus, ATCC29213, read-out: MIC. As for the experimental part: as §1
In the next series the test system is Staph. aureus 753. Nature of the series: In vitro MIC, Agar Dilution Method. It counts as cell-based. The note with it: Staphylococcus aureus, read-out: MIC. On the procedure: as §1
Another series deals with Staph. aureus Smith. The experiment in a line: In vitro MIC, Agar Dilution Method. The series is classed as cell-based. The note with it: Staphylococcus aureus, read-out: MIC. As for the experimental part: as §1
A further series relates to Ps. aeruginosa 5712. Nature of the series: In vitro MIC, Agar Dilution Method. The series is classed as cell-based. The note with it: Pseudomonas aeruginosa, read-out: MIC. As for the experimental part:
as §1

Another series concerns Str. pneumoniae 6301. The experiment in a line: In vitro MIC, Agar Dilution Method. It counts as cell-based. To be noted: Streptococcus pneumoniae. On the procedure:
as §1

For a further series, the system named is Ser. marcescens SM. Nature of the series: In vitro MIC, Agar Dilution Method. It counts as cell-based. To be noted: Serratia marcescens, read-out: MIC. On the procedure:
as §1

The subject of a further series is Staph. aureus 67. Nature of the series: In vitro MIC, Agar Dilution Method. It counts as cell-based. The note with it: Staphylococcus aureus. On the procedure:
as §1

For another series, the system named is Cit. freundi BS-16. The experiment in a line: In vitro MIC, Agar Dilution Method. It counts as cell-based. The note with it: read-out: MIC. As for the experimental part: as §1
Series [1] has as its system Ps. aeruginosa ATCC 27853. The experiment in a line: In vitro MIC, Agar Dilution Method. The note with it: Pseudomonas aeruginosa, ATCC27853, read-out: MIC. The series is classed as cell-based. As for the experimental part:
as §1

The nature of series [2]: Chemical stability (half-life) in phosphate buffer by HPLC. It counts as physicochemical. The note with it: pH 7.4, phosphate buffer (pH7.40; 37°C). On the procedure: Chemical stability (half-life) in phosphate buffer (pH 7.40; 37°C) of some of the compounds of the present invention was determined using high performance liquid chromatography (HPLC). A Hamilton PRP-1 (250 mm x 4.1 mm) column was used with UV detection at 280 nm. The mobile phase used consisted of a 0.01 M solution of tetradecyltrimethylammonium bromide in a mixture of 70% 0.072M phosphate buffer (pH 8.2) and 30% acetonitrile. In some experiments, minor adjustments to the pH and in the acetonitrile concentration were made to improve resolutions.

`CCN1CCN(C(=O)N[C@@H](C(=O)N[C@@H]2C(=O)N3C(C(=O)O)=C(CN4CCN(c5cc6c(cc5F)c(=O)c(C(=O)O)cn6C5CC5)CC4)CS[C@H]23)c2ccc(O)cc2)C(=O)C1=O` [Compound E, [6R-[6α,7β(R)]]-3-[[4-(3-Carboxy-1-cyclopropyl-6-fluoro-1,4-dihydro-4-oxo-7-quinolinyl)-1-piperazinyl]methyl]-7-[[[[(4-ethyl-2,3-dioxo-1-piperazinyl)carbonyl]amino](4-hydroxyphenyl)acetyl]amino]-8-oxo-5-thia-1-azabicyclo[4.2.0]oct-2-ene-2-carboxylic acid trfluoroacetic acid salt]: the MIC in the series with E. coli TEM-1 was 31.3 µg/mL; in the series with Enter. cloacae P99, no more than 15.7 µg/mL; with E. coli 257 it was no more than 15.7 µg/mL; in the series with E. coli ATCC 25922, no more than 15.7 µg/mL; in the series on Prot. vulgaris ATCC 6380, 125 µg/mL; with Ps. aeruginosa 8780, 8000 µg/mL. Moreover, the MIC in the series with Prot. mirabilis 90 (Prot. mirabilis 90, agar dilution, read-out: MIC) was 1000 µg/mL; in the series on K. pneumoniae A (K. pneumoniae A, agar dilution, read-out: MIC), 500 µg/mL; in the series on Staph. aureus 1059B it was 2000 µg/mL; in the series on Enter. cloacae 5699 (Enter. cloacae 5699, agar dilution, read-out: MIC) it was 125 µg/mL; in the series with Str. faecalis ATCC 29212 (Str. faecalis ATCC 29212, agar dilution, read-out: MIC) it was 16000 µg/mL; in the series on Ser. marcescens 1071 (Ser. marcescens 1071, agar dilution, read-out: MIC) it was 250 µg/mL. The MIC worked out at 62.5 µg/mL in the series with Prot. vulgaris 1028 BC; 125 µg/mL in the series with Str. pyogenes 4 (Str. pyogenes 4, agar dilution, read-out: MIC); 2000 µg/mL in the series with Ps. aeruginosa 18SH; 4000 µg/mL in the series with Ps. aeruginosa 765; 2000 µg/mL in the series with Staph. aureus ATCC 29213; 2000 µg/mL in the series with Staph. aureus 753. For the same molecule, the MIC worked out at 2000 µg/mL in the series with Staph. aureus Smith; 32000 µg/mL in the series on Ps. aeruginosa 5712; 125 µg/mL with Str. pneumoniae 6301 (Str. pneumoniae 6301, agar dilution, read-out: MIC); 250 µg/mL in the series with Ser. marcescens SM; 16000 µg/mL in the series with Staph. aureus 67 (Staph. aureus 67, agar dilution, read-out: MIC); 62.5 µg/mL with Cit. freundi BS-16. For the same molecule, the MIC in [1] came out at 8000 µg/mL. The molecule also gave a half-life in series [2] of 60 h.
As for `O=C([O-])C1=C(CN2CCN(c3cc4c(cc3F)c(=O)c(C(=O)[O-])cn4C3CC3)CC2)CS[C@@H]2[C@H](NC(=O)C(C(=O)[O-])c3ccccc3)C(=O)N12.[Na+].[Na+].[Na+]` (stereo partly drawn) [Compound F, (6R-trans)-3-[[4-(3-Carboxy-1-cyclopropyl-6-fluoro-1,4-dihydro-4-oxo-7-quinolinyl)-1-piperazinyl]methyl]-7-[(carboxyphenylacetyl)amino]-8-oxo-5-thia-1-azabicyclo[4.2.0]oct-2-ene-2-carboxylic acid sodium salt], the MIC is 1000 µg/mL against Prot. mirabilis 90 (90); 1000 µg/mL in the series on K. pneumoniae A; 500 µg/mL with Enter. cloacae 5699 (5699); 32000 µg/mL with Str. faecalis ATCC 29212; 500 µg/mL against Ser. marcescens 1071 (1071); 500 µg/mL in the series on Str. pyogenes 4 (4). For the same molecule, the MIC against Str. pneumoniae 6301 (6301) turned out to be 500 µg/mL; in the series on Staph. aureus 67 (67) it was 8000 µg/mL. For the same molecule, the half-life in series [2] is 228 h.

Broadly, the half-life is the time in which the quantity being followed falls by half. A lower half-life goes with fast loss.
